Common to all, as to assay: Glasshouse assay for herbicidal activity (pre- and post-emergence), percentage phytotoxicity
Holding throughout (type): in vivo

The test system of assay [1] is Alopecurus myosuroides (ALOMY). The conditions noted are these: Alopecurus myosuroides. Put shortly: (§1)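 Damage was rated visually as percent phytotoxicity, 100% meaning total kill, 20 days after pre-emergence application (made one day post-sowing) or 15 days after post-emergence application (made about 12 days post-sowing). Plants were grown under 16 h light, 65% humidity, warm species 24/18° C, cool 20/16° C.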

The test system of a further assay is Avena fatua (AVEFA). The conditions noted are these: Avena fatua. Summed up: as §1
For assay [2], the system named is Echinochloa crus-galli (ECHCG). Conditions: Echinochloa crus-galli. Summed up: as §1
The subject of a further assay is Lolium perenne (LOLPE). The conditions noted are these: Lolium perenne. Put shortly: as §1
Where [3] appears, read: post-emergence, 360 h, 250 g/ha, post-emergence, 15 DAA, visual assessment (100%=total damage, 0%=no damage), read-out: Post-emergence herbicidal activity (percentage phytotoxicity) ALOMY POST.
The mark [4] stands for this setting: pre-emergence, 480 h, 250 g/ha, pre-emergence, 20 DAA, visual assessment (100%=total damage, 0%=no damage), read-out: Pre-emergence herbicidal activity (percentage phytotoxicity) ALOMY PRE.
Setting [5] is: post-emergence, 360 h, 250 g/ha, post-emergence, 15 DAA, visual assessment (100%=total damage, 0%=no damage), read-out: Post-emergence herbicidal activity (percentage phytotoxicity) AVEFA POST.
[6] abbreviates: pre-emergence, 480 h, 250 g/ha, pre-emergence, 20 DAA, visual assessment (100%=total damage, 0%=no damage), read-out: Pre-emergence herbicidal activity (percentage phytotoxicity) AVEFA PRE.
Where [7] appears, read: post-emergence, 360 h, 250 g/ha, post-emergence, 15 DAA, visual assessment (100%=total damage, 0%=no damage), read-out: Post-emergence herbicidal activity (percentage phytotoxicity) ECHCG POST.
Where [8] appears, read: pre-emergence, 480 h, 250 g/ha, pre-emergence, 20 DAA, visual assessment (100%=total damage, 0%=no damage), read-out: Pre-emergence herbicidal activity (percentage phytotoxicity) ECHCG PRE.
[9] abbreviates: post-emergence, 360 h, 250 g/ha, post-emergence, 15 DAA, visual assessment (100%=total damage, 0%=no damage), read-out: Post-emergence herbicidal activity (percentage phytotoxicity) LOLPE POST.
Where [10] appears, read: pre-emergence, 480 h, 250 g/ha, pre-emergence, 20 DAA, visual assessment (100%=total damage, 0%=no damage), read-out: Pre-emergence herbicidal activity (percentage phytotoxicity) LOLPE PRE.
The mark [11] stands for this setting: post-emergence, 360 h, Rate 250 g/ha, post-emergence, assessed visually 15 DAA, 100%=total damage, 0%=no damage, read-out: Post-emergence herbicidal activity (percentage phytotoxicity) ALOMY POST.
Where [12] appears, read: pre-emergence, 480 h, Rate 250 g/ha, pre-emergence, assessed visually 20 DAA, 100%=total damage, 0%=no damage, read-out: Pre-emergence herbicidal activity (percentage phytotoxicity) ALOMY PRE.
The mark [13] stands for this setting: post-emergence, 360 h, Rate 250 g/ha, post-emergence, assessed visually 15 DAA, 100%=total damage, 0%=no damage, read-out: Post-emergence herbicidal activity (percentage phytotoxicity) AVEFA POST.
[14] abbreviates: pre-emergence, 480 h, Rate 250 g/ha, pre-emergence, assessed visually 20 DAA, 100%=total damage, 0%=no damage, read-out: Pre-emergence herbicidal activity (percentage phytotoxicity) AVEFA PRE.
Setting [15] is: post-emergence, 360 h, Rate 250 g/ha, post-emergence, assessed visually 15 DAA, 100%=total damage, 0%=no damage, read-out: Post-emergence herbicidal activity (percentage phytotoxicity) ECHCG POST.
Setting [16] is: pre-emergence, 480 h, Rate 250 g/ha, pre-emergence, assessed visually 20 DAA, 100%=total damage, 0%=no damage, read-out: Pre-emergence herbicidal activity (percentage phytotoxicity) ECHCG PRE.
The mark [17] stands for this setting: post-emergence, 360 h, Rate 250 g/ha, post-emergence, assessed visually 15 DAA, 100%=total damage, 0%=no damage, read-out: Post-emergence herbicidal activity (percentage phytotoxicity) LOLPE POST.
Where [18] appears, read: pre-emergence, 480 h, Rate 250 g/ha, pre-emergence, assessed visually 20 DAA, 100%=total damage, 0%=no damage, read-out: Pre-emergence herbicidal activity (percentage phytotoxicity) LOLPE PRE.
The mark [19] stands for this setting: post-emergence, 360 h, POST-emergence, rate 250 g/ha, visual score 15 DAA (100%=total damage, 0%=no damage), read-out: Post-emergence herbicidal activity (percentage phytotoxicity) ALOMY POST.
Setting [20] is: pre-emergence, 480 h, PRE-emergence, rate 250 g/ha, visual score 20 DAA (100%=total damage, 0%=no damage), read-out: Pre-emergence herbicidal activity (percentage phytotoxicity) ALOMY PRE.
Setting [21] is: post-emergence, 360 h, POST-emergence, rate 250 g/ha, visual score 15 DAA (100%=total damage, 0%=no damage), read-out: Post-emergence herbicidal activity (percentage phytotoxicity) AVEFA POST.
[22] abbreviates: pre-emergence, 480 h, PRE-emergence, rate 250 g/ha, visual score 20 DAA (100%=total damage, 0%=no damage), read-out: Pre-emergence herbicidal activity (percentage phytotoxicity) AVEFA PRE.
Where [23] appears, read: post-emergence, 360 h, POST-emergence, rate 250 g/ha, visual score 15 DAA (100%=total damage, 0%=no damage), read-out: Post-emergence herbicidal activity (percentage phytotoxicity) ECHCG POST.
The mark [24] stands for this setting: pre-emergence, 480 h, PRE-emergence, rate 250 g/ha, visual score 20 DAA (100%=total damage, 0%=no damage), read-out: Pre-emergence herbicidal activity (percentage phytotoxicity) ECHCG PRE.
Setting [25] is: post-emergence, 360 h, POST-emergence, rate 250 g/ha, visual score 15 DAA (100%=total damage, 0%=no damage), read-out: Post-emergence herbicidal activity (percentage phytotoxicity) LOLPE POST.
The mark [26] stands for this setting: pre-emergence, 480 h, PRE-emergence, rate 250 g/ha, visual score 20 DAA (100%=total damage, 0%=no damage), read-out: Pre-emergence herbicidal activity (percentage phytotoxicity) LOLPE PRE.

Where two headings read alike, the source gives them in different places.

On to `CCNC(=O)CC1CC(=O)C(c2c(C)cc(-c3ncc(Cl)cc3F)cc2C)C1=O` (stereo not drawn) [Compound B103], for which the pest or weed control at 250 g/ha in assay [1] (setting [3]) is 100%; in assay [1] (setting [4]), 100%; in the assay on Avena fatua (AVEFA) (setting [5]), 100%; in the assay with Avena fatua (AVEFA) (setting [6]) it was 90%; in assay [2] (setting [7]), 100%; in assay [2] (setting [8]), 100%. The pest or weed control at 250 g/ha in the assay on Lolium perenne (LOLPE) (setting [9]) and in the assay with Lolium perenne (LOLPE) (setting [10]) was 100% in each case.
For the compound `Cc1cc(-c2ncc(F)cc2F)cc(C)c1C1C(=O)CC(CC(=O)NO)C1=O` (stereo not drawn) [Compound B403], the pest or weed control at 250 g/ha came out at 90% in assay [1] (post-emergence, 360 h, Rate 250 g/ha, post-emergence, visual assessment 15 DAA, 100%=total damage, 0%=no damage, read-out: Post-emergence herbicidal activity (percentage phytotoxicity) ALOMY POST); 60% in assay [1] (pre-emergence, 480 h, Rate 250 g/ha, pre-emergence, visual assessment 20 DAA, 100%=total damage, 0%=no damage, read-out: Pre-emergence herbicidal activity (percentage phytotoxicity) ALOMY PRE); 100% with Avena fatua (AVEFA) (post-emergence, 360 h, Rate 250 g/ha, post-emergence, visual assessment 15 DAA, 100%=total damage, 0%=no damage, read-out: Post-emergence herbicidal activity (percentage phytotoxicity) AVEFA POST); 50% in the assay on Avena fatua (AVEFA) (pre-emergence, 480 h, Rate 250 g/ha, pre-emergence, visual assessment 20 DAA, 100%=total damage, 0%=no damage, read-out: Pre-emergence herbicidal activity (percentage phytotoxicity) AVEFA PRE); 100% in assay [2] (post-emergence, 360 h, Rate 250 g/ha, post-emergence, visual assessment 15 DAA, 100%=total damage, 0%=no damage, read-out: Post-emergence herbicidal activity (percentage phytotoxicity) ECHCG POST); 0% in assay [2] (pre-emergence, 480 h, Rate 250 g/ha, pre-emergence, visual assessment 20 DAA, 100%=total damage, 0%=no damage, read-out: Pre-emergence herbicidal activity (percentage phytotoxicity) ECHCG PRE). For the same compound, the pest or weed control at 250 g/ha worked out at 80% in the assay on Lolium perenne (LOLPE) (post-emergence, 360 h, Rate 250 g/ha, post-emergence, visual assessment 15 DAA, 100%=total damage, 0%=no damage, read-out: Post-emergence herbicidal activity (percentage phytotoxicity) LOLPE POST) and 20% in the assay on Lolium perenne (LOLPE) (pre-emergence, 480 h, Rate 250 g/ha, pre-emergence, visual assessment 20 DAA, 100%=total damage, 0%=no damage, read-out: Pre-emergence herbicidal activity (percentage phytotoxicity) LOLPE PRE).
With `C#CC(C)NC(=O)CC1CC(=O)C(c2c(C)cc(C)cc2C)C1=O` (stereo not drawn) [Compound B56], the pest or weed control at 250 g/ha in assay [1] (setting [3]) turned out to be 90%; in assay [1] (setting [4]), 80%; in the assay with Avena fatua (AVEFA) (setting [5]), 90%; in the assay on Avena fatua (AVEFA) (setting [6]), 70%; in assay [2] (setting [7]) it was 90%; in assay [2] (setting [8]) it was 90%. In addition, the pest or weed control at 250 g/ha amounted to 90% in the assay on Lolium perenne (LOLPE) (setting [9]) and 80% in the assay with Lolium perenne (LOLPE) (setting [10]).
For the compound `Cc1cc(C)c(C2C(=O)CC(CC(=O)N3CCOCC3)C2=O)c(C)c1` (stereo not drawn) [Compound A24], the pest or weed control at 250 g/ha in assay [1] (setting [11]) was determined as 90%; in assay [1] (setting [12]) it was 80%; in the assay on Avena fatua (AVEFA) (setting [13]), 90%; in the assay on Avena fatua (AVEFA) (setting [14]), 90%; in assay [2] (setting [15]), 100%; in assay [2] (setting [16]) it was 100%. Further, the pest or weed control at 250 g/ha in the assay with Lolium perenne (LOLPE) (setting [17]) is 100%; in the assay with Lolium perenne (LOLPE) (setting [18]), 90%.
As for `Cc1cc(-c2ccc(C#N)cc2)cc(C)c1C1C(=O)CC(CC(=O)NC(C)C)C1=O` (stereo not drawn) [Compound A37], the pest or weed control at 250 g/ha in assay [1] (setting [11]) was 80%; in assay [1] (setting [12]) it was 90%; in the assay on Avena fatua (AVEFA) (setting [13]), 100%; in the assay with Avena fatua (AVEFA) (setting [14]) it was 90%; in assay [2] (setting [15]), 90%; in assay [2] (setting [16]) it was 100%. Also, the pest or weed control at 250 g/ha in the assay on Lolium perenne (LOLPE) (setting [17]) was determined as 80%; in the assay with Lolium perenne (LOLPE) (setting [18]), 100%.
On to `C#CCN(C)C(=O)CC1CC(=O)C(c2c(C)cc(-n3cc(Cl)cn3)cc2C)C1=O` (stereo not drawn) [Compound B230], for which the pest or weed control at 250 g/ha in assay [1] (setting [19]) worked out at 100%; in assay [1] (setting [20]), 90%; with Avena fatua (AVEFA) (setting [21]) it was 100%; in the assay on Avena fatua (AVEFA) (setting [22]) it was 90%; in assay [2] (setting [23]), 100%; in assay [2] (setting [24]), 100%. The pest or weed control at 250 g/ha with Lolium perenne (LOLPE) (setting [25]) and in the assay with Lolium perenne (LOLPE) (setting [26]) was 90% in each case.
In the case of `Cc1cc(C)c(C2C(=O)CC(CC(=O)NC/C=C/Cl)C2=O)c(C)c1` (stereo not drawn) [Compound B46], the pest or weed control at 250 g/ha was found to be 90% in assay [1] (setting [3]); 90% in assay [1] (setting [4]); 90% in the assay on Avena fatua (AVEFA) (setting [5]); 60% in the assay on Avena fatua (AVEFA) (setting [6]); 90% in assay [2] (setting [7]); 90% in assay [2] (setting [8]). For the same compound, the pest or weed control at 250 g/ha in the assay with Lolium perenne (LOLPE) (setting [9]) is 90%; with Lolium perenne (LOLPE) (setting [10]), 100%.
Take `Cc1cc(-c2ccc(C#N)cn2)cc(C)c1C1C(=O)CC(CC(=O)N2CCOCC2)C1=O` (stereo not drawn) [Compound B321]: the pest or weed control at 250 g/ha is 90% in assay [1] (setting [19]); 70% in assay [1] (setting [20]); 100% in the assay on Avena fatua (AVEFA) (setting [21]); 80% in the assay with Avena fatua (AVEFA) (setting [22]); 100% in assay [2] (setting [23]); 100% in assay [2] (setting [24]). For the same compound, the pest or weed control at 250 g/ha in the assay with Lolium perenne (LOLPE) (setting [25]) and with Lolium perenne (LOLPE) (setting [26]) was 90% each time.
As for `CC#Cc1cc(C)c(C2C(=O)CC(CC(=O)NC(C)(C)C)C2=O)c(C)c1` (stereo not drawn) [Compound A31], the pest or weed control at 250 g/ha amounted to 100% in assay [1] (setting [11]); 100% in assay [1] (setting [12]); 100% in the assay on Avena fatua (AVEFA) (setting [13]); 90% with Avena fatua (AVEFA) (setting [14]); 100% in assay [2] (setting [15]); 100% in assay [2] (setting [16]). Besides, the pest or weed control at 250 g/ha in the assay on Lolium perenne (LOLPE) (setting [17]) and with Lolium perenne (LOLPE) (setting [18]) was 100% throughout.

The record behind these values is US10206394B2, “Herbicidal compounds” (Syngenta Participations AG, priority 2014, dated 2019).
